Assay results: patent US20230146455A1, “TREATMENT OF INFLAMMATORY DISEASES WITH PEPTIDES AND PHARMACEUTICAL COMPOSITIONS” (Yuyu Pharma, Inc., priority 2020, published 2023)
Several values for one entry are separate records, joined by “and”; a condition that tells them apart may be missing. Equal values may be shown once. Where a SMILES comes first, the peptide text is derived from it. [ ]: non-standard residue; d: D form. Hyp = O=C(O)[C@@H]1C[C@@H](O)CN1

Tested on: TIMP-1
Assay: Example 9 Luminex, LPS hPBMCs: TIMP-1
Type: cell-based, human
Method: Treatment Human PBMCs were pretreated with YY-101, YDE-011 and YDE-043 or reference compound; Xiidra® at various concentration (ranging from 1 nM to 100 uM) for 2 h before stimulation. An equal volume of 0.5% DMSO was used as a vehicle control. Then, the cells were treated with LPS at 5 ug/ml. The supernatants from treated cells were harvested at 24 h and placed in a 96 well for Luminex cytokine & chemokine profiling using a Luminex 200 multiplex assay (Luminex; R&D system, USA).
The main study arm with triplicate wells per group in a 24-well plate: • 1. Blank • 2. PBMC: 0.5% DMSO • 3. PBMC+LPS (5 ug/ml) • 4. PBMC+YY-101 100 uM • 5. PBMC+YY-101 10 uM • 6. PBMC+YY-101 1 uM • 7. PBMC+YY-101 0.1 uM • 8. PBMC+YY-101 0.01 uM • 9. PBMC+LPS (5 ug/ml)+Xiidra®100 uM • 10. PBMC+LPS (5 ug/ml)+Xiidra® 10 uM • 11. PBMC+LPS (5 ug/ml)+Xiidra® 1 uM • 12. PBMC+LPS (5 ug/ml)+Xiidra®0.1 uM • 13. PBMC+LPS (5 ug/ml)+Xiidra®0.01 uM • 14. PBMC+LPS (5 ug/ml)+Xiidra®0.001 uM • 15. PBMC+LPS (5 ug/ml)+YY-101 100 uM • 16. PBMC+LPS (5 ug/ml)+YY-101 10 uM • 17. PBMC+LPS (5 ug/ml)+YY-101 1 uM • 18. PBMC+LPS (5 ug/ml)+YY-101 0.1 uM • 19. PBMC+LPS (5 ug/ml)+YY-101 0.01 uM • 20. PBMC+LPS (5 ug/ml)+YY-101 0.001 uM • 21. PBMC+LPS (5 ug/ml)+YDE-011 100 uM • 22. PBMC+LPS (5 ug/ml)+YDE-011 10 uM • 23. PBMC+LPS (5 ug/ml)+YDE-011 1 uM • 24. PBMC+LPS (5 ug/ml)+YDE-011 0.1 uM • 25. PBMC+LPS (5 ug/ml)+YDE-011 0.01 uM • 26. PBMC+LPS (5 ug/ml)+YDE-011 0.001 uM • 27. PBMC+LPS (5 ug/ml)+YDE-043 100 uM • 28. PBMC+LPS (5 ug/ml)+YDE-043 10 uM • 29. PBMC+LPS (5 ug/ml)+YDE-043 1 uM • 30. PBMC+LPS (5 ug/ml)+YDE-043 0.1 uM • 31. PBMC+LPS (5 ug/ml)+YDE-043 0.01 uM • 32. PBMC+LPS (5 ug/ml)+YDE-043 0.001 uM
Multiplex assay was used to measure 30 cytokines and chemokines. The 1:2, 1:10 and 1:200 diluted cell supernatant and serial dilution of the standard were dispensed into a 96 well plate at 50 ul/well. Then, the pre-mixed cocktail of antibody-coated magnetic beads was dispensed at 50 ul/well and incubated at room temperature for 2 h in a horizontal orbital microplate shaker at 800±500 rpm. The beads were washed using a magnetic device to prevent loss. The biotin-antibody was dispensed in 50 ul of each well and incubated at room temperature for 1 h in a shaker at 800±500 rpm. After washing, streptavidin-PE was added at 50 ul/well and incubated at room temperature for 30 min in a shaker under the same conditions. Finally, after washing, wash buffer (100 ul/well) was added to the plate and incubated in a shaker for 2 min. The Luminex™ 200 setting were set according to the manufacturer's protocol. The data was calculated with a standard five-parameter logistic nonlinear regression analysis of the data (xPonent software 4.2, USA). The levels of cytokine/chemokine are normalized to the live cell counts (1×10^5 cells/mL) and presented as concentrations per mL (pg/mL or ng/mL).

[1] = PBMC + LPS(5 ug/ml), test article 0.1 uM, single replicates
[2] = PBMC + LPS(5 ug/ml), test article 1 uM, Mean
[3] = PBMC + LPS(5 ug/ml), test article 1 uM, single replicates
[4] = PBMC + LPS(5 ug/ml), test article 10 uM, Mean
[5] = PBMC + LPS(5 ug/ml), test article 10 uM, single replicates
[6] = PBMC + LPS(5 ug/ml), test article 100 uM, Mean
[7] = PBMC + LPS(5 ug/ml), test article 100 uM, single replicates
[8] = PBMC without LPS, test article 0.01 uM, Mean
[9] = PBMC without LPS, test article 0.01 uM, single replicates
[10] = PBMC without LPS, test article 0.1 uM, Mean
[11] = PBMC without LPS, test article 0.1 uM, single replicates
[12] = PBMC without LPS, test article 1 uM, Mean
[13] = PBMC without LPS, test article 1 uM, single replicates
[14] = PBMC without LPS, test article 10 uM, Mean
[15] = PBMC without LPS, test article 10 uM, single replicates
[16] = PBMC without LPS, test article 100 uM, Mean
[17] = PBMC without LPS, test article 100 uM, single replicates

CC(C)C[C@H](NC(=O)CNC(=O)[C@H](CC(=O)O)NC(=O)[C@H](CCC(N)=O)NC(=O)CNC(=O)[C@@H]1C[C@@H](O)CN1)C(=O)N[C@@H](C)C(=O)NCC(=O)N1CCC[C@H]1C(=O)N[C@@H](CCCCN)C(=O)O [YY-101] (H-[Hyp]GQDGLAGPK-OH; N-terminus and C-terminus assumed)
TIMP-1 conc/live cell (PBMC + LPS(5 ug/ml), test article 0.1 uM, Mean): 445.1 pg/10^5
TIMP-1 Concentration [1]: 2721.3 pg/mL and 2498.6 pg/mL and 2578.7 pg/mL
TIMP-1 MFI [1]: 1634.5 and 1465.5 and 1526.0
TIMP-1 conc/live cell [1]: 438.9 pg/10^5 and 480.5 pg/10^5 and 415.9 pg/10^5
TIMP-1 Concentration [2]: 2672.9 pg/mL
TIMP-1 MFI [2]: 1597.7
TIMP-1 conc/live cell [2]: 410.8 pg/10^5
TIMP-1 Concentration [3]: 2614.9 pg/mL and 2656.4 pg/mL and 2747.5 pg/mL
TIMP-1 MFI [3]: 1553.5 and 1585.0 and 1654.5
TIMP-1 conc/live cell [3]: 415.1 pg/10^5 and 374.1 pg/10^5 and 443.2 pg/10^5
TIMP-1 Concentration [4]: 2693.7 pg/mL
TIMP-1 MFI [4]: 1613.7
TIMP-1 conc/live cell [4]: 409.5 pg/10^5
TIMP-1 Concentration [5]: 2741.7 pg/mL and 2801.1 pg/mL and 2538.4 pg/mL
TIMP-1 MFI [5]: 1650.0 and 1695.5 and 1495.5
TIMP-1 conc/live cell [5]: 456.9 pg/10^5 and 437.7 pg/10^5 and 334.0 pg/10^5
TIMP-1 Concentration [6]: 3324.7 pg/mL
TIMP-1 MFI [6]: 2100.3
TIMP-1 conc/live cell [6]: 574.3 pg/10^5
TIMP-1 Concentration [7]: 3425.7 pg/mL and 3369.3 pg/mL and 3179.1 pg/mL
TIMP-1 MFI [7]: 2179.0 and 2135.0 and 1987.0
TIMP-1 conc/live cell [7]: 543.8 pg/10^5 and 543.4 pg/10^5 and 635.8 pg/10^5
TIMP-1 Concentration [8]: 5306.9 pg/mL
TIMP-1 MFI [8]: 3666.0
TIMP-1 conc/live cell [8]: 1065.2 pg/10^5
TIMP-1 Concentration [9]: 5042.4 pg/mL and 5571.4 pg/mL
TIMP-1 MFI [9]: 3456.0 and 3876.0
TIMP-1 conc/live cell [9]: 969.7 pg/10^5 and 1160.7 pg/10^5
TIMP-1 Concentration [10]: 4907.8 pg/mL
TIMP-1 MFI [10]: 3349.3
TIMP-1 conc/live cell [10]: 971.6 pg/10^5
TIMP-1 Concentration [11]: 4573.6 pg/mL and 5242.0 pg/mL
TIMP-1 MFI [11]: 3084.0 and 3614.5
TIMP-1 conc/live cell [11]: 1039.5 pg/10^5 and 903.8 pg/10^5
TIMP-1 Concentration [12]: 5121.4 pg/mL
TIMP-1 MFI [12]: 3518.8
TIMP-1 conc/live cell [12]: 931.2 pg/10^5
TIMP-1 Concentration [13]: 5155.8 pg/mL and 5087.1 pg/mL
TIMP-1 MFI [13]: 3546.0 and 3491.5
TIMP-1 conc/live cell [13]: 937.4 pg/10^5 and 924.9 pg/10^5
TIMP-1 Concentration [14]: 6576.7 pg/mL
TIMP-1 MFI [14]: 4666.8
TIMP-1 conc/live cell [14]: 1047.2 pg/10^5
TIMP-1 Concentration [15]: 8049.3 pg/mL and 5104.1 pg/mL
TIMP-1 MFI [15]: 5828.5 and 3505.0
TIMP-1 conc/live cell [15]: 1257.7 pg/10^5 and 836.7 pg/10^5
TIMP-1 Concentration [16]: 6554.3 pg/mL
TIMP-1 MFI [16]: 4654.3
TIMP-1 conc/live cell [16]: 982.4 pg/10^5
TIMP-1 Concentration [17]: 6886.9 pg/mL and 6221.7 pg/mL
TIMP-1 MFI [17]: 4917.0 and 4391.5
TIMP-1 conc/live cell [17]: 1076.1 pg/10^5 and 888.8 pg/10^5
